# Experimental data taken from BindingDB's records for patent US9670214 (Dana-Farber Cancer Institute, 2017).
# Tests used:
# [1] = biological target: Non-specific protein-tyrosine kinase [T818I] (Homo sapiens, UniProt A9UEZ6, T818I); assay: Kinase Assay; conditions: pH 7.5
# Text: (§1) Recombinant abl was expressed in Sf9 insect cells and purified as described above. Bcr-abl immune complexes were obtained with Ab-3 anti-abl monoclonal antibody (Oncogene Science) from Ba/F3.p210 lysates as previously described. […] (Calbiochem buffer and protocol). The reaction was stopped by addition of Laemmli buffer and the proteins were resolved by SDS-PAGE in a 4-20% gel. The phosphoproteins were visualized by autoradiography and the autophosphorylation quantitated using a phosphoimager (STORM, Molecular Devices).
# [2] = biological target: Non-specific protein-tyrosine kinase (Homo sapiens, UniProt A9UEZ6); assay: Kinase Assay; conditions: pH 7.5
# Chain of Non-specific protein-tyrosine kinase (A9UEZ6 whole entry): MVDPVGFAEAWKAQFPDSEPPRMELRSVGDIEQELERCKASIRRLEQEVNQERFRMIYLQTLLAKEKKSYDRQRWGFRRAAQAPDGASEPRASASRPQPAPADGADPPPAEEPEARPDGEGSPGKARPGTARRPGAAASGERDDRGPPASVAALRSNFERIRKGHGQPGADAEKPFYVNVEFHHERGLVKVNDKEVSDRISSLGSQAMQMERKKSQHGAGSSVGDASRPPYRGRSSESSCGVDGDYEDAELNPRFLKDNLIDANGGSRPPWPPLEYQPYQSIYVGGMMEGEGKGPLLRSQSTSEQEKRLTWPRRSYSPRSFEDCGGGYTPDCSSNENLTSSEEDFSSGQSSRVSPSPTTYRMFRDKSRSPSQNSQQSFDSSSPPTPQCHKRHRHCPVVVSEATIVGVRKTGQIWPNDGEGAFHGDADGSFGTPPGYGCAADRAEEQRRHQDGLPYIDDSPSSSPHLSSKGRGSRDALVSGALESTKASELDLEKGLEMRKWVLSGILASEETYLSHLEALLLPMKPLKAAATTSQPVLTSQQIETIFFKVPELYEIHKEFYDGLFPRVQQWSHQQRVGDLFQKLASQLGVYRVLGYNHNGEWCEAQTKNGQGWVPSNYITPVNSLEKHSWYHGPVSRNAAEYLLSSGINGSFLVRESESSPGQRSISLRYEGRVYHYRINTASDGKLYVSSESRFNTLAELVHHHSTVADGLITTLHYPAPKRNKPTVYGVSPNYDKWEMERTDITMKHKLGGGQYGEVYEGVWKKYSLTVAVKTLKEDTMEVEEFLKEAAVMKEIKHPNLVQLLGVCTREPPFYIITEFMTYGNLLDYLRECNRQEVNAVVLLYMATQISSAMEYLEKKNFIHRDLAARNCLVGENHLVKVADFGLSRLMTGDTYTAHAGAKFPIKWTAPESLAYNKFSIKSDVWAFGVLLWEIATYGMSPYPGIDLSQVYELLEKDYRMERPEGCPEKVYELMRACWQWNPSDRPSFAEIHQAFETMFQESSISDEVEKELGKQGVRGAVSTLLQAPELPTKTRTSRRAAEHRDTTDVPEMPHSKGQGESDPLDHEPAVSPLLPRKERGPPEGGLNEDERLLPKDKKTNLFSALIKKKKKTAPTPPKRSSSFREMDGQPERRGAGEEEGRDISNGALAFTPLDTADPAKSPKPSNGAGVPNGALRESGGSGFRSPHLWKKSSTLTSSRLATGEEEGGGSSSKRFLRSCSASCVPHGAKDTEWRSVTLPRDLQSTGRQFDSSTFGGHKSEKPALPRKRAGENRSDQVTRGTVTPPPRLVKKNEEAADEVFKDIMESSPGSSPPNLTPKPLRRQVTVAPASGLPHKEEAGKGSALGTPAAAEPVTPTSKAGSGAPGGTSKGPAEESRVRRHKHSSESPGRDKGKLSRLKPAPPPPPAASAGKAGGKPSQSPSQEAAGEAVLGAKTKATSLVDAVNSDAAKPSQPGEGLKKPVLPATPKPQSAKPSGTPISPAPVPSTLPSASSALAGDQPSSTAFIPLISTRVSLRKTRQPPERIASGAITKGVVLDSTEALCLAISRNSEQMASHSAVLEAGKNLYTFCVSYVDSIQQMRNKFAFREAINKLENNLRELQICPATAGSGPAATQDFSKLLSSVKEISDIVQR
# Text: as §1
# Chain of Non-specific protein-tyrosine kinase [T818I] (A9UEZ6 as listed by the source T818I): as the sequence (A9UEZ6 whole entry) above, with T818I counted along it
smiles,measurement,setting,value
"FC(F)(F)Oc1ccc(Nc2ncnc3c2cnn3Cc2cccnc2)cc1 [US9670214, TABLE 10.30]",IC50,[1],600 nM
same,IC50,[2],30 nM
